Like-named read-outs stand apart in the source and are kept apart here.
What was measured:
ALK = molecular target: T1, ALK (Homo sapiens, UniProt Q9UM73); test: ALK Kinase Assay (ELISA/TRF, PLC-γ substrate); format: biochemical; conditions: read-out: ALK Potency
T1 construct: host or cells: baculovirus expression system
Summary of the method: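 Wells were coated with 10 μg/mL phospholipase C-γ substrate in TBS, and the reaction was started by adding 30 ng/ml ALK enzyme and run at 37° C for 15 minutes. Phosphorylated product was detected with Eu-N1-labeled PT66 antibody, and IC50 values came from sigmoidal variable-slope fits of percent inhibition against log concentration.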

JAK2 = molecular target: T2, JAK2 (Homo sapiens, UniProt O60674); test: Recombinant Human JAK2 Kinase Assay (TRF); format: biochemical; conditions: read-out: JAK2 Potency
T2 construct: host or cells: baculovirus expression system
T2 sequence (O60674 whole entry): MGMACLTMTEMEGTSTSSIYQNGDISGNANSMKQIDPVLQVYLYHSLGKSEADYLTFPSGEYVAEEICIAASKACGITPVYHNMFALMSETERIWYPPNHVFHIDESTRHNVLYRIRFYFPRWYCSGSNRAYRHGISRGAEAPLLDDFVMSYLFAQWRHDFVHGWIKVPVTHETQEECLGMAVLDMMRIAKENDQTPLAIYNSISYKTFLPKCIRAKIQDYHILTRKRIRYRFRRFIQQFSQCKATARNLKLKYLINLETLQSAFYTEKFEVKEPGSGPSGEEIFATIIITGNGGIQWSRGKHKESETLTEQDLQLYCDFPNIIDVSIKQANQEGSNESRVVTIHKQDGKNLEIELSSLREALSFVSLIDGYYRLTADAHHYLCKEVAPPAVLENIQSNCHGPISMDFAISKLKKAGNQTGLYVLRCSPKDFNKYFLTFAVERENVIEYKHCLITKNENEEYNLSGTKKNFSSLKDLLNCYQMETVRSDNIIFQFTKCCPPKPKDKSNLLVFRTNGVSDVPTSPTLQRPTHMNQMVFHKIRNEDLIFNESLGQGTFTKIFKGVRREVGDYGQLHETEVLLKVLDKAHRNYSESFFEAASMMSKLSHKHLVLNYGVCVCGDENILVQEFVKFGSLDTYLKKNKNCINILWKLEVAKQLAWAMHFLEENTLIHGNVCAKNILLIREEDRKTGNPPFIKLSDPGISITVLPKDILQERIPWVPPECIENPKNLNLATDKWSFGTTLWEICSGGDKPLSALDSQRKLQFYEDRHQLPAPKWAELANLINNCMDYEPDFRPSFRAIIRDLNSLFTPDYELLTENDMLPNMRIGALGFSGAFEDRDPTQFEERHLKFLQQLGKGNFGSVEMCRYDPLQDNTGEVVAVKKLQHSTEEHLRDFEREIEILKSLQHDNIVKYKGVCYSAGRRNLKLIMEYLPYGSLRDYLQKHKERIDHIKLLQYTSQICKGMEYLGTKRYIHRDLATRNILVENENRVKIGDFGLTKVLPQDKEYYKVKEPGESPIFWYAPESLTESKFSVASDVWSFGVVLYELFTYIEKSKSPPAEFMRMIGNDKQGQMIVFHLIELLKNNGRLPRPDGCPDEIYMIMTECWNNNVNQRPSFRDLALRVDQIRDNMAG
Summary of the method: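 Baculovirus-expressed JAK2 (15 ng/ml) phosphorylated a biotinylated 15-mer peptide captured on Neutravidin-coated plates, in 20 mM HEPES pH 7.2 with 0.2 μM ATP, 1 mM MnCl2, 0.1% BSA and 2.5% DMSO. Reaction ran 20 min at room temperature; phosphopeptide was detected by time-resolved fluorescence with Eu-N1-labelled PY100 antibody.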

[1] = ALK kinase inhibition, 1 μM ATP
[2] = JAK2 kinase inhibition, 0.2 μM ATP

T1 sequence (Q9UM73 19-1620): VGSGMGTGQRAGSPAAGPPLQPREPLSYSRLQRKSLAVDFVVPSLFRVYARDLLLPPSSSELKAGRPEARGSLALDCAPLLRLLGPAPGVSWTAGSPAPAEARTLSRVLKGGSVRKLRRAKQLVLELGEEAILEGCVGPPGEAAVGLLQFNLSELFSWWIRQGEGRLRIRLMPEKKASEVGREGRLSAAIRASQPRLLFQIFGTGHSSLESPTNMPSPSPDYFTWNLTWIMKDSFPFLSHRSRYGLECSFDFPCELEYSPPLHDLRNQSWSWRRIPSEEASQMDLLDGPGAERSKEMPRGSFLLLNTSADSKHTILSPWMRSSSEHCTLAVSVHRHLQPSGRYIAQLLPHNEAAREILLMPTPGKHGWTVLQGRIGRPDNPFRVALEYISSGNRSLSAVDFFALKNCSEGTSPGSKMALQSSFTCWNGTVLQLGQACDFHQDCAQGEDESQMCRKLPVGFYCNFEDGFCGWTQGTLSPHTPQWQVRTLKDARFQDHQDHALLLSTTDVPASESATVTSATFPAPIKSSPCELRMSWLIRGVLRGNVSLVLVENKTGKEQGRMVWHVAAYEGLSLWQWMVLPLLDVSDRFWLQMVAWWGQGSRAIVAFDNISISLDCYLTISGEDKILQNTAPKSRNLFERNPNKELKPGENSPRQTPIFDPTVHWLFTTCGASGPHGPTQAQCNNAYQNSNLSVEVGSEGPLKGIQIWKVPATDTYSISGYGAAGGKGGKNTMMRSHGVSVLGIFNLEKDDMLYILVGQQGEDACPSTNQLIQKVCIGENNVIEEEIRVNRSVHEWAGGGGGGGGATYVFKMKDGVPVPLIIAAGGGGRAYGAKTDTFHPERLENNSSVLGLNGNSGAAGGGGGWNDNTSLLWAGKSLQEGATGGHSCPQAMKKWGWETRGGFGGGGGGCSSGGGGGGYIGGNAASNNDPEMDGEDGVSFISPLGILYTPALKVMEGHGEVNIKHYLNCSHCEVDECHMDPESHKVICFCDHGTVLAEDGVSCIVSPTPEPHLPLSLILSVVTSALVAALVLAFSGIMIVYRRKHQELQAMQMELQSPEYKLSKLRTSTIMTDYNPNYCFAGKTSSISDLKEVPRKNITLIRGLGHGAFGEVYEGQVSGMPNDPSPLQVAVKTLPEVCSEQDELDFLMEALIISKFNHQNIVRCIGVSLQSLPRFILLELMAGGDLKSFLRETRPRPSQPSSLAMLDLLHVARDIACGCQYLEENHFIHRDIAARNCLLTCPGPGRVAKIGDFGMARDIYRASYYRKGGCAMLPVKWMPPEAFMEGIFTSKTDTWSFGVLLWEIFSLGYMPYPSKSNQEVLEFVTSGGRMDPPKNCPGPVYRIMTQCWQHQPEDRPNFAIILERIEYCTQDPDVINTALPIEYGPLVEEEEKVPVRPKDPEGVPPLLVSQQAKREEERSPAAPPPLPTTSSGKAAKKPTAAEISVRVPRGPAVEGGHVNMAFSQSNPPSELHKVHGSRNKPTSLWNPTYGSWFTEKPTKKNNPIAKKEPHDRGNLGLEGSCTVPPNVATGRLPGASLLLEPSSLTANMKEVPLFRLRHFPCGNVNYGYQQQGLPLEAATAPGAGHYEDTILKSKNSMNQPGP

Row | IC50 (ALK; [1]) [µM] | IC50 (JAK2; [2]) [µM] | IC50 (ALK; ALK Kinase Inhibition) [µM] | IC50 (JAK2; JAK2 Kinase Inhibition) [µM] | SMILES
1 | < 0.1 | 1 to 10 | – | – | COc1cc([C@@H]2CCNC[C@@H]2O)ccc1Nc1ncc2ccc(-c3ccccc3N(C)S(C)(=O)=O)n2n1 (racemic) [Example 841, (±)-N-(2-{2-[4-((3R,4S)-3-Hydroxy-piperidin-4-yl)-2-methoxy-phenylamino]-pyrrolo[2,1-f][1,2,4]triazin-7-yl}-phenyl)-N-methyl-methanesulfonamide]
2 | 0.1 to 1 | 1 to 10 | – | – | COc1ccccc1-c1ccc2cnc(Nc3cccc(C(=O)N4CCN(CCO)CC4)c3OC)nn12 [Example 1233, [4-(2-Hydroxy-ethyl)-piperazin-1-yl]-{2-methoxy-3-[7-(2-methoxy-phenyl)-pyrrolo[2,1-f][1,2,4]triazin-2-ylamino]-phenyl}-methanone]
3 | – | – | < 0.1 | < 0.1 | COc1ncccc1-c1ccc2cnc(Nc3ccc(N4CCN(C)CC4)cc3)nn12 [Example 22, [7-(2-Methoxy-pyridin-3-yl)-pyrrolo[2,1-f][1,2,4]triazin-2-yl]-[4-(4-methyl-piperazin-1-yl)-phenyl]-amine]
4 | – | – | 0.1 to 1 | < 0.1 | COc1ccccc1-c1ccc2cnc(Nc3ccc(N4CCOCC4)c(F)c3)nn12 [Example 186, (3-Fluoro-4-morpholin-4-yl-phenyl)-[7-(2-methoxy-phenyl)-pyrrolo[2,1-f][1,2,4]triazin-2-yl]-amine]
5 | 1 to 10 | < 0.1 | – | – | CN1CCCC1COc1cc(Nc2ncc3ccc(-c4cccc(S(C)(=O)=O)c4)n3n2)ccc1Cl (centres unmarked) [Example 1013, [4-Chloro-3-(1-methyl-pyrrolidin-2-ylmethoxy)-phenyl]-[7-(3-methanesulfonyl-phenyl)-pyrrolo[2,1-f][1,2,4]triazin-2-yl]-amine]
6 | > 10 | > 10 | – | – | COc1ccc(-c2ccn3nc(Nc4ccc(N5CCN(C)CC5)cc4)ncc23)cc1 [Example 724, [5-(4-Methoxy-phenyl)-pyrrolo[2,1-f][1,2,4]triazin-2-yl]-[4-(4-methyl-piperazin-1-yl)-phenyl]-amine]
7 | < 0.1 | 0.1 to 1 | – | – | COc1cc(N2CCCN(C3CCN(C)CC3)CC2)ccc1Nc1ncc2ccc(-c3ccccc3N(C)S(C)(=O)=O)n2n1 [Example 790, N-[2-(2-{2-Methoxy-4-[4-(1-methyl-piperidin-4-yl)-[1,4]diazepan-1-yl]-phenylamino}-pyrrolo[2,1-f][1,2,4]triazin-7-yl)-phenyl]-N-methyl-methanesulfonamide]
8 | – | – | 0.1 to 1 | < 0.1 | COc1ccccc1-c1ccc2cnc(Nc3ccc4c(c3)CC(=O)N4C)nn12 [Example 359, 5-[7-(2-Methoxy-phenyl)-pyrrolo[2,1-f][1,2,4]triazin-2-ylamino]-1-methyl-1,3-dihydro-indol-2-one]
9 | < 0.1 | < 0.1 | – | – | COc1cc(N2CCN(C[C@H](C)O)CC2)ccc1Nc1ncc2ccc(-c3ccccc3OC)n2n1 [Example 753, (S)-1-(4-{3-Methoxy-4-[7-(2-methoxy-phenyl)-pyrrolo[2,1-f][1,2,4]triazin-2-ylamino]-phenyl}-piperazin-1-yl)-propan-2-ol]
10 | > 10 | 0.1 to 1 | – | – | Cn1cc(-c2ccc3cnc(N4CCC(Oc5cccc(N)c5)CC4)nn23)cn1 [Example 598, 3-{1-[7-(1-Methyl-1H-pyrazol-4-yl)-pyrrolo[2,1-f][1,2,4]triazin-2-yl]-piperdin-4-yloxy}-phenylamine]
11 | 0.1 to 1 | < 0.1 | – | – | CN1C(=O)COc2cc(Nc3ncc4ccc(-c5ccccc5N(C)S(C)(=O)=O)n4n3)ccc21 [Example 640, N-Methyl-N-{2-[2-(4-methyl-3-oxo-3,4-dihydro-2H-benzo[1,4]oxazin-7-ylamino)-pyrrolo[2,1-f][1,2,4]triazin-7-yl]-phenyl}-methanesulfonamide]
12 | – | – | > 10 | > 10 | Oc1ccc(-c2ccc3cnc(Nc4cccc(N5CCOCC5)c4)nn23)cn1 [Example 332, 5-[2-(3-Morpholin-4-yl-phenylamino)-pyrrolo[2,1-f][1,2,4]triazin-7-yl]-pyridin-2-ol]
13 | < 0.1 | 1 to 10 | – | – | COc1cc(N(C)C(=O)CN2CCOCC2)ccc1Nc1ncc2ccc(-c3ccccc3N(C)S(C)(=O)=O)n2n1 [Example 473, N-(4-{7-[2-(Methanesulfonyl-methyl-amino)-phenyl]-pyrrolo[2,1-f][1,2,4]triazin-2-ylamino}-3-methoxy-phenyl)-N-methyl-2-morpholin-4-yl-acetamide]
14 | > 10 | < 0.1 | – | – | CN(C)S(=O)(=O)c1ccc(Nc2ncc3ccc(-c4cccc(S(=O)(=O)NC(C)(C)C)c4)n3n2)cc1 [Example 593, 4-({7-[3-(tert-butylsulfamoyl)phenyl]pyrrolo[2,1-f][1,2,4]triazin-2-yl}amino)-N,N-dimethylbenzenesulfonamide]
15 | 1 to 10 | < 0.1 | – | – | COc1ccc(-c2ccc3cnc(Nc4cccc(C#N)c4)nn23)cn1 [Example 974, 3-[7-(6-Methoxy-pyridin-3-yl)pyrrolo[2,1f][1,2,4]triazin-2-ylamino]-benzonitrile]
16 | – | – | 1 to 10 | < 0.1 | COc1ccc(-c2ccc3cnc(Nc4cccc(C5CN(C)CCN5C)c4)nn23)cn1 (centres unmarked) [Example 1519, [3-(1,4-Dimethyl-piperazin-2-yl)-phenyl]-[7-(6-methoxy-pyridin-3-yl)-pyrrolo[2,1-f][1,2,4]triazin-2-yl]-amine]
17 | < 0.1 | 0.1 to 1 | – | – | COc1cc([C@@H]2CCN(CCF)C[C@@H]2O)ccc1Nc1ncc2ccc(-c3ccccc3N(C)S(C)(=O)=O)n2n1 (racemic) [Example 843, (±)-N-[2-(2-{4-[(3R,4S)-1-(2-Fluoro-ethyl)-3-hydroxy-piperidin-4-yl]-2-methoxy-phenylamino}-pyrrolo[2,1-f][1,2,4]triazin-7-yl)-phenyl]-N-methyl-methanesulfonamide]
18 | < 0.1 | 1 to 10 | – | – | COc1cc(N(C)C(=O)CN2CCN(C)CC2)ccc1Nc1ncc2ccc(-c3ccccc3OC)n2n1 [Example 474, N-{3-Methoxy-4-[7-(2-methoxy-phenyl)-pyrrolo[2,1-f][1,2,4]triazin-2-ylamino]-phenyl}-N-methyl-2-(4-methyl-piperazin-1-yl)-acetamide]
19 | 0.1 to 1 | < 0.1 | – | – | Cc1ccncc1-c1ccc2cnc(Nc3ccc(N4CCN(C)CC4)cc3)nn12 [Example 1039, [4-(4-Methyl-piperazin-1-yl)-phenyl]-[7-(4-methyl-pyridin-3-yl)-pyrrolo[2,1-f][1,2,4]triazin-2-yl]-amine]
20 | – | – | > 10 | 1 to 10 | COc1ccc(CNc2ncc3ccc(-c4ccccc4OC)n3n2)cc1OC [Example 442, (3,4-Dimethoxy-benzyl)-[7-(2-methoxy-phenyl)-pyrrolo[2,1-f][1,2,4]triazin-2-yl]-amine]
21 | 1 to 10 | < 0.1 | – | – | COc1ccccc1-c1ccc2cnc(Nc3cn(CC(=O)N4CCOCC4)cn3)nn12 [Example 1113, 2-{4-[7-(2-Methoxy-phenyl)-pyrrolo[2,1-f][1,2,4]triazin-2-ylamino]-imidazol-1-yl}-1-morpholin-4-yl-ethanone]

Row | SMILES | IC50 (ALK; [1]) [µM] | IC50 (JAK2; [2]) [µM] | IC50 (ALK; ALK Kinase Inhibition) [µM] | IC50 (JAK2; JAK2 Kinase Inhibition) [µM]
22 | CN1C2CCC1CC(c1ccc(Nc3ncc4ccc(-c5cccc(S(=O)(=O)NC(C)(C)C)c5)n4n3)cc1)C2 (centres unmarked) [Example 943, N-tert-Butyl-3-{2-[4-(8-methyl-8-aza-bicyclo[3.2.1]oct-3-yl)-phenylamino]-pyrrolo[2,1-f][1,2,4]triazin-7-yl}-benzenesulfonamide] | 0.1 to 1 | < 0.1 | – | –
